In PubChem BioAssay (NCI):
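In this assay, cells in 96-well plates receive the compound at five concentrations for 48 hours. Endpoints are linearly interpolated between the surrounding concentrations. TGI denotes the concentration required for complete inhibition of growth.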

How the values were obtained:
Assay in all cases: NCI-60 cell line screen, 48 h
TK-10 renal = test system: TK-10 renal
SNB-75 CNS = test system: SNB-75 CNS
UACC-62 melanoma = test system: UACC-62 melanoma
RPMI-8226 leukemia = test system: RPMI-8226 leukemia
SF-268 CNS = test system: SF-268 CNS
RXF 393 renal = test system: RXF 393 renal
M14 melanoma = test system: M14 melanoma
SF-295 CNS = test system: SF-295 CNS
SNB-19 CNS = test system: SNB-19 CNS
HL-60(TB) leukemia = test system: HL-60(TB) leukemia
SF-539 CNS = test system: SF-539 CNS
EKVX NSCLC = test system: EKVX NSCLC
COLO 205 colon = test system: COLO 205 colon
NCI-H226 lung = test system: NCI-H226 lung
HCT-116 colon = test system: HCT-116 colon
SK-MEL-5 melanoma = test system: SK-MEL-5 melanoma
SN12C renal = test system: SN12C renal
U251 CNS = test system: U251 CNS

SMILES	TGI (TK-10 renal) [µM]	TGI (SNB-75 CNS) [µM]	TGI (UACC-62 melanoma) [µM]	TGI (RPMI-8226 leukemia) [µM]	TGI (SF-268 CNS) [µM]	TGI (RXF 393 renal) [µM]	TGI (M14 melanoma) [µM]	TGI (SF-295 CNS) [µM]	TGI (SNB-19 CNS) [µM]	TGI (HL-60(TB) leukemia) [µM]	TGI (SF-539 CNS) [µM]	TGI (EKVX NSCLC) [µM]	TGI (COLO 205 colon) [µM]	TGI (NCI-H226 lung) [µM]	TGI (HCT-116 colon) [µM]	TGI (SK-MEL-5 melanoma) [µM]	TGI (SN12C renal) [µM]	TGI (U251 CNS) [µM]
Cc1cc(NC(=O)NC(=O)c2ccccc2N)ccc1Oc1ncc(Br)cn1	35.1	37.7	1.75	> 100	> 67.3	1.62	> 31.2	17	38.5	1.39	0.287	> 84.3	0.108	6.64	8.15	16.2	> 46.4	7.25
CC(C)(C)[Si](C)(C)OCC1OC(n2ccc(=O)[nH]c2=O)C(O[Si](C)(C)C(C)(C)C)[C@@]12O[C@H]2C(N)=O (stereo partly specified)	48.3	24.7	99.3	> 100	28.2	–	42.9	17	24.1	> 100	13.4	34.4	24.8	11.4	22.1	16.5	30.3	23.2
CCOP(=O)(OCC)/C(C#N)=C/c1ccc(-c2ccc(F)cc2F)o1	25.5	61.3	23.4	51.9	44.3	> 100	31.7	30.8	33.3	34.9	35.8	31	30.7	36	32.3	35.7	29.7	32.6
CCOP(=O)(OCC)C(Nc1cccc([N+](=O)[O-])c1)c1ccccc1 (stereo unspecified)	> 100	> 100	> 100	> 100	> 100	> 100	> 100	> 100	> 100	> 100	> 100	> 100	> 100	> 100	> 100	> 100	> 100	> 100
CCN(CCCN(CC)C(=O)Nc1ccccc1)C(=O)Nc1ccccc1	> 100	> 100	> 100	> 100	–	> 100	> 100	> 100	> 100	> 100	> 100	> 100	> 100	> 100	> 100	> 100	> 100	> 100
COc1ccc(-c2cc(-c3ccc(Nc4ccnc5cc(Cl)ccc45)cc3)nc(N)c2C#N)cc1	> 100	> 100	> 100	> 100	> 100	> 100	> 100	> 100	> 100	> 100	> 100	> 100	> 100	> 100	> 100	–	–	> 100
C/C(=N\Nc1ccccc1Br)c1cccc(/C(C)=N/Nc2ccccc2Br)n1	> 100	36.8	–	> 100	> 100	42.4	> 100	> 100	> 100	> 100	> 100	> 100	> 100	> 100	> 100	> 100	> 100	> 100
